Test results from paper PMC11167047 (Cell Death Discovery, 2024).
Where two headings read alike, the source gives them in different places.

Assays:
Ramos cells [1] = experiment: BrdU cell proliferation assay; format: cell-based, human; conditions: 24 h, non-lethal doses
Description: The Bromodeoxyuridine (BrdU) Cell Proliferation kit from Millipore (#QIA58-1000TEST) was used to measure proliferation of cells. The manufacturer protocol has been optimized as described in the following. 1 × 10^4 cells per well were seeded in a 96-well plate. The cells were pre-incubated with the compounds of interest for 1 h. Following this, the BrdU solution was added and the cells were incubated for a total of 24 h. BrdU is an analog of the nucleoside thymidine and is incorporated into the DNA of dividing cells during replication. Culture medium was removed and cells were fixed and denatured with Fixative/Denaturing solution for 30 min at room temperature. Since suspension cells were used, they had to be centrifuged at 1200 rpm for 5 min after each following step. After, the anti-BrdU-antibody was incubated for 1 h at RT. Cells were washed three times with washing buffer. The secondary antibody, which is coupled to HRP (horseradish peroxidase) was incubated for 30 min at RT. Again, cells were washed three times with washing buffer.
Then, the substrate solution was added, that contained TMB (3,3’,5,5’-Tetramethylbenzidine), which is oxidized by HRP. Oxidation of TMB causes a color change from colorless to blue. The intensity of color change is correlated with the number of bound peroxidases, which depends on the quantity of primary antibodies and therefore on the content of the incorporated BrdU. If the cells are not proliferating, no BrdU is incorporated, resulting in a weak signal.
After 15 min incubation time the stopping reagent was added, causing a pH change and resulting in a color change from blue to yellow. The colored reaction product was quantified at 450 nm using a spectrophotometer. For all measurements, three technical replicates were made. The control was set to 100% proliferation, and the treated cells were normalized to the control. The results were visualized using GraphPad Prism 7.

Ramos = experiment: AlamarBlue viability assay; format: cell-based, human; conditions: Homo sapiens, Ramos, 24 h, read-out: IC50 (Ramos)
CDK1 = conditions: read-out: Enzymatic IC50 values, CDK1, cited from earlier work
CDK2 = conditions: read-out: Enzymatic IC50 values, CDK2, cited from earlier work
CDK4 = test system: CDK4; set-up: method as in Selleckchem.com; conditions: ref Selleckchem.com; read-out: Enzymatic IC50 values, CDK4; cited from earlier work
CDK6 = test system: CDK6; set-up: method as in Selleckchem.com; conditions: ref Selleckchem.com; read-out: Enzymatic IC50 values, CDK6; cited from earlier work
CDK9 = conditions: read-out: Enzymatic IC50 values, CDK9, cited from earlier work
CDK5 = conditions: read-out: Enzymatic IC50 values, CDK5, cited from earlier work
[2] = test system: retinoblastoma (RB) protein phosphorylation; experiment: immunoblotting of phospho-RB in Ramos cells; format: cell-based, human; conditions: up to 24 h
Description: (§1) Cells were seeded at a density of 2 × 10^6 cells, treated as specified and harvested by centrifugation at 3000 rpm for 5 min, followed by freezing in liquid nitrogen. The cell pellets were thawed on ice and quick-frozen and defrozen in liquid nitrogen for three times, then lysed on ice in lysis buffer (20 mM Tris-HCl, 150 mM NaCl, 1% v/v Triton X-100, 0.5 mM EDTA, 10 mM NaF, 2.5 mM Na4P2O7, protease inhibitor (Sigma, #P2714)) for 30 min, accompanied by vortexing. Subsequently, centrifugation 13,300 rpm for 15 min purified cell lysates from cell debris. The supernatant was transferred to a new tube and the protein concentration was determined by Bradford assay. The samples were diluted with sample buffer. SDS-Page and Western Blot were conducted in accordance with standard workflows. […] The antibody baths were stored at 4 °C and re-used.
(§2) The density of the individual protein band was determined using Image Studio^TM Lite Version 5.2. The density of each protein was divided by the average of all bands of this protein. The ratios of the protein of interest were normalized to the ratio of the respective loading control. To determine the fold change, each normalized ratio was divided by the normalized band of the control line (untreated cells). Fold change is 1 for the control line, n ≥ 2. The results are shown as mean ± standard deviation and were visualized with GraphPad Prism 7.

[3] = test system: RNA polymerase II phosphorylation at Ser2; experiment: immunoblotting of p-Ser2 RNA polymerase II in Ramos cells; format: cell-based, human; conditions: 0.1 and 1 µM (R547 1 µM), 4-24 h
Description: as §1, §2

Ramos cells [4] = experiment: cell cycle analysis (Nicoletti assay); format: cell-based, human; conditions: 24 h, sublethal dose, with QVD
Description: DNA content during cell cycle and hypodiploid apoptotic nuclei were measured by the method of Nicoletti et al.. […] Hypodiploid nuclei were measured in logarithmic mode for apoptosis determination. Flow-cytometry analysis was performed on an LSRFortessa^TM (Becton, Dickinson, Heidelberg, Germany) and data analysis was performed using FlowJo_V10 (BD Biosciences).

cyclin B1 expression = experiment: immunoblotting of cyclin B1 in Ramos cells; format: cell-based, human; conditions: 24 h
Description: as §1, §2

SMILES	proliferation (BrdU incorporation) (Ramos cells [1])	IC50 (Ramos; cytotoxicity)	IC50 (CDK1; ref Selleckchem.com)	IC50 (CDK2; ref Selleckchem.com)	IC50 (CDK4)	IC50 (CDK9; ref Selleckchem.com)	further results
CCc1cnn2c(NCc3ccc[n+]([O-])c3)cc(N3CCCC[C@H]3CCO)nc12 [dinaciclib]	substantial decrease in proliferation	–	–	–	–	–	–
CN1CC[C@H](c2c(O)cc(O)c3c(=O)cc(-c4ccccc4Cl)oc23)[C@H](O)C1 [flavopiridol]	–	140 nM	[…]	[…]	[…]	[…]	IC50 (CDK6): […]
CC(C)(C)c1cnc(CSc2cnc(NC(=O)C3CCNCC3)s2)o1 [SNS-032]	–	710 nM	–	–	–	[…]	IC50 (CDK5; ref Selleckchem.com): […]
COc1ccc(F)c(F)c1C(=O)c1cnc(NC2CCN(S(C)(=O)=O)CC2)nc1N [R547, [4-amino-2-(1-methanesulfonylpi peridin-4-ylamino)pyrimidin-5-yl](2,3-difluoro-6-methoxyphenyl) methanone, reference compound]	[…]	–	2 nM	–	[…]	–	IC50 (Ramos): 1800 nM; phosphorylation of RB at p-Thr821 ([2]; 0.1 and 1 µM (R547 1 µM)): loss of phosphorylation; phosphorylation of RB at p-Ser249 and p-Thr252 ([2]; 0.1 or 1 µM (R547 1 µM)): completely abrogated the phosphorylation of RB within 4 h; phosphorylation of RNA polymerase II at Ser2 [3]: less pronounced; effect on cell cycle phases (Ramos cells [4]): pronounced G2 arrest; expression of cyclin B1 (cyclin B1 expression): rather increased the expression of cyclin B1
CN1C/C=C/CCOc2cccc(c2)-c2ccnc(n2)Nc2cccc(c2)C1 [zotiraciclib]	–	170 nM	9 nM	5 nM	–	3 nM	–
COc1ccnc2[nH]cc(-c3ccnc(N)n3)c12 [meriolin 3]	substantial decrease in proliferation	130 nM	–	–	–	–	IC50 (CDK1; ref [10, 12] of the supplement): 170 nM; IC50 (CDK2; ref [10, 12] of the supplement): 11 nM; IC50 (CDK5; ref [10, 12] of the supplement): 170 nM; IC50 (CDK9; ref [10, 12] of the supplement): 6 nM
